Test results from PMC10286718, “Amino Acid Starvation-Induced Glutamine Accumulation Enhances Pneumococcal Survival” (mSphere, 2023).

Assays:
[1] = target: T1, SPD1098 SBD1 (GlnP) (Streptococcus pneumoniae, UniProt A0A0H2ZPN9); experiment: isothermal titration calorimetry; format: binding
T1 construct: gene SPD_1098
T1 sequence (A0A0H2ZPN9 24-247): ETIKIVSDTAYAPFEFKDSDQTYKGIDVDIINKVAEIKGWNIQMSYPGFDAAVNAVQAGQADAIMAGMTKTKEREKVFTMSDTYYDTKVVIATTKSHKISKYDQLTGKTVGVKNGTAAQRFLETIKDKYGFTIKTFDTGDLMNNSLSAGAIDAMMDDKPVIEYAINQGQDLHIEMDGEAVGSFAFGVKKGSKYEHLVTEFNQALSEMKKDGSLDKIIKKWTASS
Description: isothermal titration calorimetry on SPD1098 SBD1 (GlnP)

[2] = target: T2, SPD1098 SBD2 (GlnP) (Streptococcus pneumoniae, UniProt A0A0H2ZPN9); experiment: isothermal titration calorimetry; format: binding
T2 construct: gene SPD_1098
T2 sequence (A0A0H2ZPN9 262-488): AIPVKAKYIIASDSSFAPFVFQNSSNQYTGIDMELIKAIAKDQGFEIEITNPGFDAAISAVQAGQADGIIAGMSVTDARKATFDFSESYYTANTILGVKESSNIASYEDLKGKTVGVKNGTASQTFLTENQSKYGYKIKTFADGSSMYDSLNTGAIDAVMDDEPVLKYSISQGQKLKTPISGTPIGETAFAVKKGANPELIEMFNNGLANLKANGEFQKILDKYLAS
Description: isothermal titration calorimetry on SPD1098 SBD2 (GlnP)

| SMILES | Kd [1] [nM] | Kd [2] [nM] |
| --- | --- | --- |
| NC(=O)C[C@H](N)C(=O)O [asparagine] | 1090 |  |
| NC(=O)CC[C@H](N)C(=O)O [glutamine] |  | 890 |
